Laboratory results taken from article PMC4885035, “Pathway for Biodegrading Nodularin (NOD) by Sphingopyxis sp. USTB-05” (Toxins, 2016).

System: crude enzymes (CEs) of Sphingopyxis sp. USTB-05
Type: in vitro ADME
Conditions: NOD 11.6 mg/L with CEs 570 mg/L protein, 30 °C, HPLC-UV 238 nm; for fate of the biodegradation product in the presence of CEs: followed to 36 h
Experimental: Bacterial cells of USTB-05 in the logarithmic growth phase of the third day were harvested by centrifugation at 8000 r/min for 20 min at room temperature. The bacterial pellet was subsequently washed three times with 50 mM phosphate buffer solution (PBS, pH 7.0). Afterwards, the cells were resuspended in 30 mL PBS, and then disrupted using an ultrasonic disruptor with an output power of 600 W for 15 min in an ice bath. […].
The total biodegradation reaction volume was 5 mL containing 570 mg/L, 380 mg/L, and 211 mg/L proteins in PBS in each 10 mL centrifuge tube, respectively. […]. The reaction was performed at 30 °C and 200 r/min. Samples of 500 μL for each were taken after 0, 3, 6, 12, 24, and 36 h, respectively, and then 5 μL of concentrated hydrochloric acid (36%, v/v) was added to stop the reaction. A control bottle was prepared in the same way without CEs. All samples were centrifuged at 13,000 r/min for 10 min and then the concentrations of residual NOD and its products in supernatants were analyzed using HPLC. All experiments were carried out in triplicate.
NOD and its enzymatic biodegradation products were firstly analyzed using a HPLC system (Shimadzu LC-10ATVP, Shimadzu Co., Ltd., Kyoto, Japan) with an ultraviolet (UV) Diode Array Detector at 238 nm using a Agilent TC-C18 column (4.6 mm × 250 mm) (Agilent Technologies Inc., 1200 series, Santa Clara, CA, USA). […]. The flow rate was 1 mL/min and the injection amount was 20 μL. The concentration of NOD was determined by calibration of peak area (at 238 nm) with that of the standard NOD. The biodegradation products that contained Adda were monitored by HPLC based on the assumption that their molar absorption coefficient at 238 nm is the same as NOD.

CO[C@@H](Cc1ccccc1)[C@@H](C)/C=C(C)/C=C/[C@H](N)[C@H](C)C(=O)O [product B, (2S,3S,8S,9S)-3-amino-9-methoxy-2,6,8-trimethyl-10-phenyldeca-4(E),6(E)-dienoic acid]
time at which the product peak appeared on HPLC during enzymatic biodegradation of NOD: 6 h | fate of the biodegradation product in the presence of CEs: always increased over time until 36 h

CC=C(C(=O)N[C@@H](C(=O)O)[C@H](C)C(=O)N[C@@H](CCCNC(=N)N)C(=O)O)N(C)C(=O)CC[C@@H](NC(=O)[C@@H](C)[C@@H](N)/C=C/C(C)=C/[C@H](C)[C@H](Cc1ccccc1)OC)C(=O)O [product A]
time at which the product peak appeared on HPLC during enzymatic biodegradation of NOD: 3 h | fate of the biodegradation product in the presence of CEs: completely converted to product B
